Experimental data taken from paper PMC11191095, “QSAR Reveals Decreased Lipophilicity of Polar Residues Determines the Selectivity of Antimicrobial Peptide Activity” (ACS Omega, 2024).
Where a SMILES comes first, the peptide text is derived from it.

Test system: human erythrocytes
Assay: In vitro hemolytic activity
Assay type: cell-based
Details: 1 h
In short: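 Serial peptide dilutions in PBS mixed 1:1 with fresh erythrocytes, 1 h at 37 °C; supernatant OD550 measured after centrifugation. Hemolysis normalized to 0.1% Triton X-100 (full lysis) and PBS (none); HC10 and HC50 taken from dose–response curves.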

[1] = human erythrocytes in PBS, 37 °C, OD550, from dose response curves

CC(C)[C@H](NC(=O)CNC(=O)[C@H](CCCNC(=N)N)NC(=O)[C@H](CCCNC(=N)N)NC(=O)[C@H](CS)NC(=O)[C@@H](NC(=O)[C@H](CS)NC(=O)[C@@H](N)CCCNC(=N)N)C(C)C)C(=O)N[C@@H](CS)C(=O)N[C@@H](CCCNC(=N)N)C(=O)N[C@@H](CS)C(=O)N[C@H](C(=O)N[C@@H](CS)C(=O)N[C@@H](CCCNC(=N)N)C(=O)N[C@@H](CCCNC(=N)N)C(N)=O)C(C)C [BTD15a] (H-RCVCRRGVCRCVCRR-NH2; N-terminus assumed)
HC10 (concentration causing 10% hemolysis) [1]: 9 µg/mL | HC50 (concentration causing 50% hemolysis) [1]: 33 µg/mL | % hemolysis (red cells of human, 256 μg/mL): 100%
